According to paper PMC7617889, “Molecular basis for pH sensing in the KDEL trafficking receptor” (Structure (London, England : 1993), 2024):
pIC50, pKd: −log10 of the molar value. Blank lines part the entries; values can stand above or below the substance they belong to. Where no end group is shown, it is not given here.

Key:
TAEKDEL peptide = settings: cited from earlier work
TAEHDEL peptide = settings: cited from earlier work
[1] = test system: HeLa S3 cells (endogenous KDEL receptor); assay: ER secretion assay (western blot of cells and media); type: cell-based, human; settings: for ER retention of the mScarlet reporter (secretion to media): 24 hr expression, western blot of cell extracts and medium, n = 3, result in words; for secretion of endogenous luminal ER chaperones (BiP, PDI, ERP44) caused by the exogenous signal variant: western blot, n = 3, compared with signals having leucine at −1, result in words
Text: To further explore if disturbing the water will disrupt the binding, the terminal leucine at the −1 position in the HDEL ligand was alchemically changed to phenylalanine or alanine (Figures 3E and 3F). Phenylalanine also stabilized the two waters in the binding pocket, resulting in a high unbinding free energy. Due to its small size, alanine, however, was unable to stabilize the water, resulting in lower binding free energy. To validate these calculations, we tested the impact of signal variants at the −1 position on both retrieval of the endogenous KDELR from the Golgi to the ER and ER retention of a reporter protein carrying the signal variant in a cellular assay. To measure the role of the −1 position on retrieval of the endogenous KDELR to the ER, cells were transfected with mScarlet-reporters carrying −1 alanine (H/KDEA) or phenylalanine (H/KDEF) variants of either the HDEL or KDEL retrieval signals (Figure 4A). […] Finally, the effect of −1 variant signals on KDELR retrieval of endogenous ER chaperones was also tested. […] This effect was reduced for HDEF or KDEF signals and lost entirely for HDEA or KDEA signals (Figures 4B and 4D).
Figure 4 The terminal amino acid modulates recognition of the ERS by the KDEL receptor (A) Endogenous KDEL receptor redistribution was measured in COS-7 cells in the absence (-ligand) or presence of H/KDEL/F/A (mScarlet-xDEx^sec). TGN46 was used as a Golgi marker. The scale bar is 10 μm. The mean differences for H/KDEL/F/A comparisons against the shared no-ligand control are shown as Cummings estimation plots. The individual data points for the fraction of KDEL receptor fluorescence in the Golgi are plotted on the upper axes. On the lower axes, mean differences are plotted as bootstrap sampling distributions. Each mean difference is depicted as a dot. Each 95% confidence interval is indicated by the ends of the vertical error bars. (B) Cells and media collected from HeLa S3 cells expressing the xDEx variants (mScarlet-K/HDEx^sec) indicated in the figure were western blotted for resident ER chaperons and KDEL receptor.*unspecific bands (C) K/HDEx secretion to media bar graph showing mean ± SEM (n = 3). (D) Bar graph of endogenous ER chaperones secreted after challenged with different retrieval signals as measured by western blot showing mean ± SEM (n = 3).
ER chaperone secretion assays were performed as described in Gerondopoulos et al.[11] Briefly HeLa S3 cells were transfected with mScarlet-ligand (+xDEL ligand) or pcDNA3.1 (− ligand), and allowed to express the respective proteins for 24 hr. The media were TCA precipitated and both cell and media were resuspended and boiled in SDS-PAGE sample buffer. All samples were analysed by Western blotting and signals on films were measured by densitometry in FIJI.[33] Data were plotted as bar graphs in GraphPad Prism.

[2] = biological target: T1, Gallus gallus (Gg) KDELR2 (Gallus gallus, UniProt Q5ZKX9); assay: Peptide binding assay, competition of 3H-labelled peptide (filter binding, scintillation counting); settings: competition of 3H-labelled peptide at 20 nM, 20 mM MES pH 5.4, 40 mM sodium chloride, 0.01% DDM 0.0005% CHS, 20°C, 10 min, mean, n = 3, read-out: affinity (mean IC50, Figure S3)
T1 construct: GFP-His fusion (C); made in house; host or cells: Saccharomyces cerevisiae strain BY5460
T1 sequence (Q5ZKX9 1-212): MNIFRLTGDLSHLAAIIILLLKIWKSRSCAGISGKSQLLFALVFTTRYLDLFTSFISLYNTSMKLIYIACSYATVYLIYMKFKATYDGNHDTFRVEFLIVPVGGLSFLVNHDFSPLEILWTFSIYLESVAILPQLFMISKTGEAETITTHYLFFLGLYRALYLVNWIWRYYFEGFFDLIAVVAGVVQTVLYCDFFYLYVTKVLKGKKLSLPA
Protocol: Binding assays were performed as detailed in Bräuer, P. et al.[19] WT or mutant protein (5 μL) in 20 mM MES pH 5.4, 40 mM Sodium Chloride, 0.01% DDM 0.0005% CHS was incubated with 5 μL of 3H-TAEHDEL (Cambridge Research Biochemicals, UK) at 20 nM at 20°C for 10 min. Using a vacuum manifold, the reaction was then filtered through a 0.22 μm mixed cellulose ester filters (Millipore, USA). Filters were washed with 2 x 0.5 mL cold buffer. The amount of peptide remaining bound was measured using scintillation counting in Ultima Gold (Perkin Elmer). Experiments were performed at least three times, independently, to generate an overall mean and standard deviation (s.d).
Figure S3. Affinity of different cargo signals, related to Figure 5. Mean IC50 values calculated for the TAEHDEF and TAEHDEL peptides competing […] peptide. Error bars are standard deviation of the mean (n = 3).
(1 picture or pasted object on this page, not shown here)

[3] = test system: human KDELR1-GFP D9N in COS-7 cells; assay: Retrieval assay (KDEL receptor redistribution Golgi to ER); type: cell-based; settings: KDELR-GFP D9N vs WT, mScarlet ligand
Text: Figure 6 Effect of the water on proton transfer between Asp9 and His12 (A) In the bound state, a proton could be transferred from the histidine (His12/H12) to the aspartate (Asp9/D9) through the crystallographic water. A similar proton transfer can also be made in the apo state. (B) In the apo and bound state, the free energy barrier for the proton transfer (the center of excess charge) from the histidine to aspartate is similar. A larger energy barrier is observed for the proton transfer from aspartate back to the histidine in the bound state. (C) WT, D9A and D9N-mutant KDEL receptors redistribution in COS-7 cells in the absence (-ligand) or presence of K/R/HDEL (mScarlet-xDEL^sec) ligand. TGN46 was used as a Golgi marker. […] (D) The fraction of wild-type and H12A, D9A, and D9N-mutant KDEL receptors localized to the Golgi was measured before (no ligand) and after challenge with different retrieval signals (K/R/HDEL) and is shown as Cummings estimation plots. […]
Retrieval assays were performed as described in Gerondopoulos et al.[11] […] The signal for the KDEL receptor (integrated pixel intensity) was measured in individual cells using FIJI[33] for the Golgi region defined by the TGN46 Golgi marker and for the entire cell in the presence (+) and absence (-) of ligand. The fraction of KDEL receptor in the Golgi apparatus was calculated by dividing the Golgi signal by the total cell signal. […]

chicken KDELR = settings: cited from earlier work
[4] = biological target: T2, human KDELR1-GFP D9N (human) (UniProt P24390)
T2 sequence: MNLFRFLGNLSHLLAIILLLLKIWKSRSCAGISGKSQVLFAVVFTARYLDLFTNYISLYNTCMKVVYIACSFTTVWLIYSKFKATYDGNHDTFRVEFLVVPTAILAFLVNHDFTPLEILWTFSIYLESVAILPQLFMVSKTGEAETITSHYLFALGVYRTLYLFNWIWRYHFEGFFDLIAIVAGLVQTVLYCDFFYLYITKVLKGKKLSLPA

Substance: KDEL receptor (from UniProt Q5ZKX9)
- pKd (TAEKDEL peptide): 5.71
- pKd (TAEHDEL peptide): 6.62

Substance: KDEF^sec: hGHss-mScarlet-H. sapiens BiP639-654 L654F secreted reporter (GPPPTGEEDTAEKDEF; not fully specified (N-terminus))
- ER retention of the mScarlet reporter (secretion to media) [1]: retained more efficiently than the alanine variants but less efficiently than when leucine is present
- secretion of endogenous luminal ER chaperones (BiP, PDI, ERP44) caused by the exogenous signal variant [1]: reduced

- pIC50 [2]: 4.74
Substance: TAEHDEL [TAEHDEL, reference compound]

Substance: HDEA [HDEL ligand with terminal leucine changed to alanine (simulation)]
- secretion of endogenous luminal ER chaperones (BiP, PDI, ERP44) caused by the exogenous signal variant [1]: lost entirely

Substance: HDEL
- retrieval of cargo by the Asp9Asn receptor variant relative to WT [3]: ~ 80 % WT levels
- pKd (chicken KDELR): 6.62

Substance: HDEF [HDEL ligand with terminal leucine changed to phenylalanine (simulation)]
- ER retention of the mScarlet reporter (secretion to media) [1]: retained more efficiently than the alanine variants but less efficiently than when leucine is present
- secretion of endogenous luminal ER chaperones (BiP, PDI, ERP44) caused by the exogenous signal variant [1]: reduced

Substance: RDEL [RDEL variant of the retrieval signal peptide]
- pKd (chicken KDELR): 5.57

- ligand-induced redistribution of KDELR1-GFP from the Golgi in COS-7 cells (cell retrieval assay), HDEL ligand [4]: 80 % WT levels
Substance: hGHss-mScarlet-H. sapiens BiP639-654 K651H (HDEL^SEC) (from UniProt P11021 639-654)

- pIC50 [2]: 4.64
Substance: TAEHDEF [TAEHDEF]

Substance: KDEA [KDEL ligand with alanine at the −1 position (simulation)]
- secretion of endogenous luminal ER chaperones (BiP, PDI, ERP44) caused by the exogenous signal variant [1]: lost entirely

Substance: Lys-Asp-Glu-Leu [KDEL]
- pKd (chicken KDELR): 5.71

Substance: TAEKDEL [ER-retrieval signal peptide with canonical KDEL, Cambridge peptides]
- pKd (chicken KDELR): 5.71
